Measurements taken from patent USRE48636E1, “Decoy peptides inhibiting protein phosphatase 1-mediated dephosphorylation of phospholamban” (BethphaGen Inc., priority 2012, dated 2021).
Entries after “also recorded” stand apart in the source; their conditions may differ. No end group written: not given here.

Legend:
rat hearts = assay: Langendorff isolated perfused heart, ischemia/reperfusion ex vivo, left ventricular developed pressure; conditions: 20 min no-flow ischemia, 30 min reperfusion with 1 μM peptide
Description: (§1) FIGS. 3a-3b represent the postischemic cardiac performance ex vivo. […] The changes in left ventricular developed pressure (LVDP) are shown. n=4. *, P<0.01 compared to TAT; error bars represent SEM. […] Western blots probed with antibodies against phospho-PLB (S^16), phosphor-PLB (T^17), total PLB, Caspase 3, or GAPDH are shown.
Rats were anesthetized by inhalation of isofluran (0.5%) for 5 min. The heart was quickly removed and placed in cold oxygenated Tyrode solution (137 mM NaCl, 5.4 mM KCl, 1 mM MgCl2, 10 mM glucose, 1 mM CaCl2, 10 mM HEPES [pH 7.4], 100% O2). The aorta was cannulated and perfused by the Langendorff method with oxygenated Tyrode solution at constant pressure (65 mmHg, temperature 37±0.2° C.). A latex water-filled balloon was inserted into the left ventricular chamber and connected to a pressure transducer (AD Instruments) for continuous measurement of heart performance. Heart rate, left ventricular developed pressure (LVDP), and the first derivatives of LV pressure (LV +dP/dt max and LV −dP/dt max) were all recorded using PowerLab Chart Systems (AD Instruments). The balloon volume was adjusted in 250-300 μl to result in a measured end diastolic pressure in the range of 6-10 mmHg. After a 30 min stabilization period, the hearts were subjected to 20 min of no-flow to induce global ischemia, followed by 30 min of reperfusion. […]

[1] = tested on: PP1-mediated dephosphorylation of PLB; assay: PLB phosphorylation (Western blot) in PMA-treated isolated adult cardiomyocytes; type: cell-based, rat; conditions: 1 μM peptide 45 min, then 1 μM PMA 15 min; for Blocking of PMA-induced dephosphorylation of PLB at Ser16 and Thr17 (elevating the phosphorylation levels of PLB): Western blot
Description: FIGS. 1c-1d represent the increase in PLB phosphorylation by the decoy peptides (FIG. 1c) and shortened decoy peptides (FIG. 1d). Isolated adult cardiomyocytes were treated with 1 μM of indicated peptides for 45 min, and then with 1 μM of PMA for 15 min. Western blots of cell lysates were then probed with antibodies against phospho-PLB (S^16), phospho-PLB (T^17), total PLB, or GAPDH. The decoy peptides contain the following sequences: ψPLB-SE, RAETIEMPQ (SEQ ID NO:1); ψPLB-SD, RADTIEMPQ (SEQ ID NO:3); ψPLB-TE, RASEIEMPQ (SEQ ID NO:2). The shortened decoy peptides contain the following sequences: ψPLB-8-mer, AETIEMPQ (SEQ ID NO:4); ψPLB-7-mer, RAETIEM (SEQ ID NO:5); ψPLB-6-mer, RAETIE (SEQ ID NO:6); ψPLB-5-mer: RAETI (SEQ ID NO:7). PMA, phorbol 12-myristate 13-acetate.
The decoy peptides were derived from the PLB protein sequence (SEQ ID NO:10) surrounding the phosphorylation sites Ser^16 and Thr^17: RAS^16T^17IEMPQ. The peptides were conjugated via a cystein-cystein bond at their N termini to the cell penetrating peptide TAT (YGRKKRRQRRR (SEQ ID NO:11)) to facilitate uptake into cells. The peptides used in this invention were as follows: ψPLB-wt, RASTIEMPQ (SEQ ID NO:8); ψPLB-SE, RAETIEMPQ (SEQ ID NO:1); ψPLB-TE, RASEIEMPQ (SEQ ID NO:2); ψPLB-SD, RADTIEMPQ (SEQ ID NO:3). In addition, shortened ψPLB-SE peptides were also tested: 8-mer, AETIEMPQ (SEQ ID NO:4); 7-mer, RAETIEM (SEQ ID NO:5); 6-mer, RAETIE (SEQ ID NO:6); 5-mer, RAETI (SEQ ID NO:7). All of the peptides were synthesized and modified by AnyGen (Gwangju, Korea) and dissolved in distilled water to a stock concentration of 1 mM. Peptides were >95% pure. The decoy peptides were treated for 1 h at a final concentration of 1 μM.
(§2) Ventricular myocytes were isolated from SD rat hearts as previously described with minor modifications. Male rats of 8-12 weeks of age (250-320 g) were used. In brief, rats were anesthetized by the inhalation of isofluran (0.5%) for 5 min. The heart was quickly removed from the chest and the aorta was retrogradely perfused at 37° C. for 3 min with calcium-free Tyrode buffer (137 mM NaCl, 5.4 mM KCl, 1 mM MgCl2, 10 mM glucose, 10 mM HEPES [pH 7.4], 10 mM 2, 3-butanedione monoxime, and 5 mM taurine) gassed with 100% O2. The enzymatic digestion was then initiated by adding collagenase type B (0.35 U/ml; Roche) and hyaluronidase (0.1 mg/ml; Worthington) to the perfusion solution. When the heart became swollen after 10 min of digestion, the left ventricle was quickly removed, cut into several chunks, and further digested in a shaker (60-70 rpm) for 10 min at 37° C. in the same enzyme solution. The supernatant containing the dispersed myocytes was then filtered through a cell strainer (100 μm in pore size, BD Falcon) and gently centrifuged at 500 rpm for 1 min. Extracellular Ca^2+ was incrementally added back to a concentration of 1.25 mM over a span of 30 min to avoid the Ca^2+ paradox. This procedure usually yielded ≥80% viable rod-shaped ventricular myocytes with clear sarcomere striations. Myocytes with obvious sarcolemmal blebs or spontaneous contractions were discarded.
(§3) Heart lysates (50 μg) in SDS sample buffer were run on a SDS-PAGE gel and then transferred to a PVDF membrane (Bio-Rad). The membrane was blocked with a 5% skim milk solution and then incubated overnight with antibodies directed against PLB (Affinity Bioreagents), phospho-PLB (Ser^16, Cell Signaling), phospho-PLB (Thr^17, Badrilla), SERCA2a (Santa Cruz), Caspase 3 (Cell Signaling), or GAPDH (Santa Cruz). The membranes were then incubated with a secondary antibody conjugated to horseradish peroxidase (Jackson Immuno Research) and developed using the Western Lighting chemiluminescence reagent (Perkin Elmer).

adult cardiomyocytes [2] = assay: Cell contractility of isolated adult cardiomyocytes (video-based edge detection); parameters: species or system rat; conditions: for Effect on PMA-induced reduction in contractility (peak shortening, rates of contraction and relaxation): 1 μM peptide 45 min, then 1 μM PMA 15 min
Description: (§4) FIGS. 2a-2d represent the increase in cardiac contractility by the decoy peptides. Isolated adult cardiomyocytes were treated with 1 μM of indicated peptides for 45 min, and then with 1 μM of PMA for 15 min. Contractile parameters were then determined. FIGS. 2a and 2b show contractile parameters. Peak cell shortening, percentage of shortened cell length; −dL/dt, maximal rate of cell shortening; +dL/dt, maximal rate of cell relengthening. FIGS. 2c and 2d show average parameters of the transient Ca^2+ properties determined with Fura2/AM. Baseline [Ca^2+]i, baseline intracellular Ca^2+ levels; Δ[Ca^2+]i (340/380), increase in intracellular Ca^2+ levels in response to electric Stimuli; τ(ms), Ca^2+ transient decay rate. Approximately 500 cells were chosen for the contractility and Ca^2+ transient measurements were taken from eight individual hearts. #, P<0.05; *, P<0.01 compared to control; error bars represent SD.
as §2
(§5) The mechanical properties of ventricular myocytes were assessed using a video-based edge detection system (IonOptix), as previously described. In brief, laminin-coated coverslips with attached cells were placed in a chamber mounted on the stage of an inverted microscope (Nikon Eclipse TE-100F) and perfused (about 1 ml/min at 37° C.) with Tyrode buffer (137 mM NaCl, 5.4 mM KCl, 1 mM CaCl2, 1 mM MgCl2, 10 mM glucose, and 10 mM HEPES [pH 7.4]). The cells were field-stimulated at a frequency of 3 Hz (30 V) using a STIM-AT stimulator/thermostat placed on a HLD-CS culture chamber/stim holder (Cell Micro Controls). […] Changes in cell length during shortening and relengthening were captured and analyzed using soft edge software (IonOptix). The cardiomyocytes were loaded with 0.5 μM Fura2-AM (Molecular Probes), a Ca^2+-sensitive indicator, for 15 min at 37° C. Fluorescence emissions were recorded simultaneously with the contractility measurements using Myocyte calcium and contractility recording system (IonOptix). Cardiomyocytes were exposed to light emitted by a 75 W halogen lamp through either a 340 or 380 nm filter while being field-stimulated as described above. Fluorescence emissions were detected between 480 and 520 nm by a photomultiplier tube after initial illumination at 340 nm for 0.5 ms and then at 380 nm for the duration of the recording protocol. The 340 nm excitation scan was then repeated at the end of the protocol, and qualitative changes in the intracellular Ca^2+ concentration were inferred from the ratio of the Fura fluorescence intensity at both wavelengths.

adult cardiomyocytes [3] = assay: Intracellular Ca2+ transient measurement (Fura2-AM) in isolated adult cardiomyocytes; type: cell-based, rat; conditions: for Effect on PMA-induced defects in intracellular Ca2+ handling (Ca2+ transient amplitude, time constant of decay): 1 μM peptide 45 min, then 1 μM PMA 15 min, Fura2/AM
Description: as §4, §2, §5

Caspase 3 = assay: Western blot of heart lysates after ischemia/reperfusion: Caspase 3; parameters: species or system rat; conditions: heart lysates at the end of reperfusion with 1 μM peptide
Description: as §1, §3
(§6) Rats were anesthetized by inhalation of isofluran (0.5%) for 5 min. […] Heart rate, left ventricular developed pressure (LVDP), and the first derivatives of LV pressure (LV +dP/dt max and LV −dP/dt max) were all recorded using PowerLab Chart Systems (AD Instruments). The balloon volume was adjusted in 250-300 μl to result in a measured end diastolic pressure in the range of 6-10 mmHg. […]

PLB = assay: Western blot of heart lysates after ischemia/reperfusion: phospho-PLB; parameters: species or system rat; conditions: heart lysates at the end of reperfusion with 1 μM peptide
Description: as §1, §3, §6

[4] = 1 μM PMA 15 min, no decoy peptide

## YGRKKRRQRRR (Human immunodeficiency virus) [TAT, reference compound]
Rat hearts
  Effect on left ventricular developed pressure after ischemia/reperfusion: no effects

## AETIEMPQ (not fully specified (N-terminus); also: TAT coupled) [ψPLB-8-mer]
[1]
  Blocking of PMA-induced dephosphorylation of PLB at Ser16 and Thr17 (elevating the phosphorylation levels of PLB): only ψPLB-5-mer was ineffective

## RASTIEMPQ (not fully specified (N-terminus); also: TAT coupled via disulfide) [ψPLB-wt]
Adult cardiomyocytes [2]
  Effect on PMA-induced reduction in contractility (peak shortening, rates of contraction and relaxation): no or only marginal effects
Adult cardiomyocytes [3]
  Effect on PMA-induced defects in intracellular Ca2+ handling (Ca2+ transient amplitude, time constant of decay): negligible or marginal

## RAETI [ψPLB-5-mer]
[1]
  Blocking of PMA-induced dephosphorylation of PLB at Ser16 and Thr17 (elevating the phosphorylation levels of PLB): ineffective

## RAETIEM [ψPLB-7-mer]
[1]
  Blocking of PMA-induced dephosphorylation of PLB at Ser16 and Thr17 (elevating the phosphorylation levels of PLB): only ψPLB-5-mer was ineffective

## RAETIEMPQ (not fully specified (N-terminus); also: TAT coupled) [ψPLB-SE]
Adult cardiomyocytes [2]
  Effect on PMA-induced reduction in contractility (peak shortening, rates of contraction and relaxation): completely prevented
[1]
  Phosphorylation levels of PLB after treatment compared with basal levels: slightly but significantly higher than the basal levels
  Blocking of PMA-induced dephosphorylation of PLB at Ser16 and Thr17 (elevating the phosphorylation levels of PLB): significantly blocked; also recorded: prevented dephosphorylation
Caspase 3
  I/R-induced activation of cell death-related Caspase 3: completely reversed
Rat hearts; I/R alone 37-44 mmHg, pre-ischemia 80-100 mmHg
  Left ventricular developed pressure after ischemia/reperfusion: 73-78 mmHg
Adult cardiomyocytes [3]
  Effect on PMA-induced defects in intracellular Ca2+ handling (Ca2+ transient amplitude, time constant of decay): completely reversed
PLB
  Phosphorylation of PLB at Ser16 after ischemia/reperfusion: significantly recovered

## RASEIEMPQ (not fully specified (N-terminus); also: TAT coupled) [ψPLB-TE]
Adult cardiomyocytes [2]
  Effect on PMA-induced reduction in contractility (peak shortening, rates of contraction and relaxation): no or only marginal effects
[1]
  Blocking of PMA-induced dephosphorylation of PLB at Ser16 and Thr17 (elevating the phosphorylation levels of PLB): blocked dephosphorylation but was less effective than ψPLB-SE; also recorded: not as effective as ψPLB-SE
Adult cardiomyocytes [3]
  Effect on PMA-induced defects in intracellular Ca2+ handling (Ca2+ transient amplitude, time constant of decay): negligible or marginal

## CCCCCCCCCCCCCC(=O)O[C@@H]1[C@@H](C)[C@@]2(O)[C@@H](C=C(CO)C[C@]3(O)C(=O)C(C)=C[C@@H]23)[C@@H]2C(C)(C)[C@]12OC(C)=O [PMA, phorbol 12-myristate 13-acetate, reference compound]
Adult cardiomyocytes [2]; [4]
  Contractility (peak shortening, rates of contraction and relaxation): significantly reduced
Adult cardiomyocytes [3]; [4]
  Ca2+ transient amplitude: significant reduction
  Time constant of the Ca2+ transient decay: significant increase

## RAETIE [ψPLB-6-mer]
Adult cardiomyocytes [2]
  Effect on PMA-induced reduction in contractility (peak shortening, rates of contraction and relaxation): as effective as ψPLB-SE
[1]
  Blocking of PMA-induced dephosphorylation of PLB at Ser16 and Thr17 (elevating the phosphorylation levels of PLB): only ψPLB-5-mer was ineffective
Adult cardiomyocytes [3]
  Effect on PMA-induced defects in intracellular Ca2+ handling (Ca2+ transient amplitude, time constant of decay): as effective as ψPLB-SE

## RADTIEMPQ (not fully specified (N-terminus); also: TAT coupled) [ψPLB-SD]
Adult cardiomyocytes [2]
  Effect on PMA-induced reduction in contractility (peak shortening, rates of contraction and relaxation): as effective as ψPLB-SE
[1]
  Blocking of PMA-induced dephosphorylation of PLB at Ser16 and Thr17 (elevating the phosphorylation levels of PLB): as effective as ψPLB-SE
Adult cardiomyocytes [3]
  Effect on PMA-induced defects in intracellular Ca2+ handling (Ca2+ transient amplitude, time constant of decay): as effective as ψPLB-SE
